Measurements as given in paper PMC10362175, “Selenium-binding protein 1 (SELENBP1) is a copper-dependent thiol oxidase” (Redox Biology, 2023).

Columns and labels:
Format in all cases: biochemical
SELENBP1 = biological target: T1, SELENBP1 (Homo sapiens, UniProt Q13228); assay: coupled MGL assay, H2S (lead acetate paper) and H2O2 (fluorometric); conditions: Cu cofactor, HBS pH 7.4, 37 °C, 3 h
T1 construct: Strep-tagged recombinant, E. coli BL21 or KRX, Strep-Tactin XT purified, 56 kDa
T1 sequence (Q13228 2-472): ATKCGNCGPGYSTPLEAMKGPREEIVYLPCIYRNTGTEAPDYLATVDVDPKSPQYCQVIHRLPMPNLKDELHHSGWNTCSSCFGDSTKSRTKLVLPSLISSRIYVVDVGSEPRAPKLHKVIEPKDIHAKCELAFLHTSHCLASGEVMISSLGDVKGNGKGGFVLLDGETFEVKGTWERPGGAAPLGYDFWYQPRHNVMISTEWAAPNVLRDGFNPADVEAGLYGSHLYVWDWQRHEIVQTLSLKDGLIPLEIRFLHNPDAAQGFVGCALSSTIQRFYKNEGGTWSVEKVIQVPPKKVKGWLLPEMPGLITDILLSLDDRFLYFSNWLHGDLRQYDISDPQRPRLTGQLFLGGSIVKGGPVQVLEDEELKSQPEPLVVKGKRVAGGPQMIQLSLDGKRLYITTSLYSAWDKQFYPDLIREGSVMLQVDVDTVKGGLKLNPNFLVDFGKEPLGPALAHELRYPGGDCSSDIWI

SEMO-1 = biological target: T2, SEMO-1 (Caenorhabditis elegans, UniProt Q9XXF9); assay: as above; conditions: Cu cofactor; methanethiol generated in situ from L-methionine; HBS pH 7.4; 37 °C, 3 h
T2 construct: Strep-tagged recombinant, E. coli BL21 or KRX, Strep-Tactin XT purified

[1] = biological target: T3, methionine gamma-lyase (MGL) (Brevibacterium aurantiacum, UniProt A0A2H1K3G9); assay: DTNB (Ellman's reagent) trapping of volatile thiol, […] nm; conditions: HBS, 3 h
T3 construct: gene BAUR9175_03070
T3 sequence (A0A2H1K3G9 14-406 limits assumed): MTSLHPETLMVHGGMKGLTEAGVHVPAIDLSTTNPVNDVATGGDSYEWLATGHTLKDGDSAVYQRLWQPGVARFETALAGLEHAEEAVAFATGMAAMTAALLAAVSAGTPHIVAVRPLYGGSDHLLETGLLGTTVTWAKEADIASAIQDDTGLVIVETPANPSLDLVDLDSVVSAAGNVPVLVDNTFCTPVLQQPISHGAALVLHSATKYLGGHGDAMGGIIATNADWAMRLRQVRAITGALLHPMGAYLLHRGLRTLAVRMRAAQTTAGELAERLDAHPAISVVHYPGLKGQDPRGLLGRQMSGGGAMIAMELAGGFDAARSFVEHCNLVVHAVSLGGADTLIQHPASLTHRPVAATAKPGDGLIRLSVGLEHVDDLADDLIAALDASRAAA

T2 sequence (Q9XXF9 entry or part of it): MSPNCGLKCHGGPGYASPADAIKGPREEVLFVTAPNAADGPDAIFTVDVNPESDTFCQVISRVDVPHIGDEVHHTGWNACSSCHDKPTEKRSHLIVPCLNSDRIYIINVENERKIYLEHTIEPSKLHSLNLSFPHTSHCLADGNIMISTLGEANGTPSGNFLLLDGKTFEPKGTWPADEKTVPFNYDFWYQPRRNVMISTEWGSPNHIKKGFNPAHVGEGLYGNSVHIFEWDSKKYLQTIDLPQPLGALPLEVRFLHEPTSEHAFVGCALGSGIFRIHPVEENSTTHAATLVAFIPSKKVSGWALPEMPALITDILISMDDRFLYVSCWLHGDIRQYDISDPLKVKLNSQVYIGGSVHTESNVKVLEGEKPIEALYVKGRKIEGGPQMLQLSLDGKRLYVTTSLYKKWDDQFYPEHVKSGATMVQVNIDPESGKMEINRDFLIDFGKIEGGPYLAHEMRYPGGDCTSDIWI

## CS [methanethiol]
SELENBP1; methanethiol generated in situ from L-methionine
  coupled MGL assay, H2S (lead acetate paper) and H2O2 (fluorometric): methanethiol and ethanethiol are by far the best SELENBP1 substrates
SEMO-1
  coupled MGL assay, H2S (lead acetate paper) and H2O2 (fluorometric): only the addition of cupric ions was capable of regenerating and even enhancing MTO activity

## CSCC[C@H](N)C(=O)O [L-methionine]
[1]; product methanethiol
  DTNB (Ellman's reagent) trapping of volatile thiol, 412 nm: MGL-mediated generation of methanethiol from methionine served as positive control

## CCS [ethanethiol]
SELENBP1; ethanethiol generated in situ from DL-ethionine
  coupled MGL assay, H2S (lead acetate paper) and H2O2 (fluorometric): methanethiol and ethanethiol are by far the best SELENBP1 substrates

## N[C@@H](CCS)C(=O)O [L-homocysteine]
[1]; product H2S
  DTNB (Ellman's reagent) trapping of volatile thiol, 412 nm: ethanethiol, methaneselenol and H2S were generated by MGL-mediated elimination from their precursor amino acids
